The values that follow come from patent publication US8957091B2, “Use of quinolinone derivatives as a research tool” (Centre National de la Recherche Scientifique, priority 2010, dated 2015).

SMILES strings stand for the structures. Entries after “also recorded” stand apart in the source; their conditions may differ. Like-named read-outs stand apart in the source and are kept apart here.

What all share (format): cell-based
The target of experiment [1] is T1, Smo1 sites (Mus musculus, UniProt P56726).
T1 construct: host or cells: C3H10T1/2
Briefly: Inhibition of C3H10T1/2 differentiation (alkaline phosphatase activity) induced by SAG. The conditions noted are these: for IC50: alkaline phosphatase activity induced by SAG (0.1 μM). As to the method: (§1) The C3H10T1/2 cells were seeded onto 96-well plates at a density of 5×10^3 cells per well, 24 hours before the addition of the test compounds at a concentration ranging from 10 nM to 10 μM in DMEM culture medium supplemented with 10% of fetal calf serum. The tests were carried out in quadruplicate. The plates were then incubated for 5-6 days at a temperature of 37° C. under an atmosphere of 5% CO2. The cells were then washed in cold phosphate buffer (phosphate buffered saline: PBS) and then lysed by sonication at 4° C. in 50 μl of a solution containing 0.9% of NaCl and 0.2% of Triton X-100.
(§2) The alkaline phosphatase in the resulting lysates was then measured according to the method described by Pepinsky et al. (Pepinsky et al. 1998). After the addition of […] of reaction buffer (200 mM Tris-HCL; pH 10.5; 0.4 M of 2-amino-2-methylpropanol and 8 mM of MgCl2) and of 50 μl of substrate (4 mM of disodium p-nitrophenyl phosphate), the lysates were incubated at 37° C. for 30-60 min and then the optical density was read at a wavelength of 415 nm.

Experiment [2] deals with T2, Smo2 sites (Mus musculus, UniProt P56726).
T2 construct: host or cells: C3H10T1/2
Kind of experiment: Inhibition of C3H10T1/2 differentiation (alkaline phosphatase activity) induced by compound 1 or compound 6. The conditions noted are these: for selectivity between Smo1 and Smo2 sites (in words): Smo1 stimulated by SAG, Smo2 stimulated by compound 1; for C3H10T1/2 cell differentiation IC50 Smo1/IC50 Smo2: ratio of mean IC50 values, Smo1 stimulated by SAG 0.1 μM, Smo2 by compound 1 1 μM. As to the method: as §1, §2

For experiment [3], the system named is C3H10T1/2 mesenchymal stem cells. Briefly: Modulation by IWR1 of differentiation stimulated by compound 1 or SAG. How it is done:
For the experiments in the presence of forskolin, compound 1 (1 μM) and SAG (0.3 μM) were used to stimulate differentiation in the presence of increasing concentrations (1, 3 and 10 μM) of forskolin (Sigma). The IWR1 compound (Sigma), for its part, was used at 10 μM on an activation by compound 1 at 1 μM or SAG at 0.1 μM. The alkaline phosphatase activity was measured as previously.

The test system of experiment [4] is C3H10T1/2 cells. Kind of experiment: Activation of osteogenic differentiation of C3H10T1/2 cells (alkaline phosphatase activity). The conditions noted are these: for stimulation of osteogenesis: induction of alkaline phosphatase after 6 days. As to the method: The pluripotent fibroblast cell line C3H10T1/2 (ATCC) was cultured under the conditions recommended by the ATCC. The stimulation of the differentiation of these cells was carried out using increasing concentrations of compounds according to the methods described by Chen et al. and Frank-Kamenetsky et al. (Chen et al. 2002; Frank-Kamenetsky et al. 2002). The activation by the compounds of general formula (I) causes differentiation of the cell line and enables the latter to express alkaline phosphatase. It was thus possible to measure the activity of the compounds via the measurement of alkaline phosphatase activity. By way of comparison, the activity of the SAG compound (Chen et al. 2002), an Smo activator, was tested under the same conditions as those used to test the compounds of general formula (I).
as §1, §2

Where [5] appears, read: alkaline phosphatase activity induced by compound 1 (1 μM), C3H10T1/2 cells, read-out: Smo2 IC50.
Where [6] appears, read: alkaline phosphatase activity induced by compound 1 (1 μM), mean ± SEM of 2 to 6 experiments, read-out: IC50 μM, C3H10T1/2, Compound 1.
Where [7] appears, read: alkaline phosphatase activity induced by compound 6 (3 μM), mean ± SEM of 2 to 6 experiments, read-out: IC50 μM, C3H10T1/2, Compound 6.
[8] abbreviates: antagonist at 10 μM, induced by compound 1 (1 μM), C3H10T1/2 cells.
Setting [9] is: C3H 10T1/2, antagonist at 10 μM, induced by SAG (0.1 μM), C3H10T1/2 cells, read-out: Smo1 Inhibition 10 μM.
[10] abbreviates: C3H 10T1/2, antagonist at 10 μM, induced by compound 1 (1 μM), C3H10T1/2 cells, read-out: Smo2 Inhibition 10 μM.

T2 sequence (P56726 33-793): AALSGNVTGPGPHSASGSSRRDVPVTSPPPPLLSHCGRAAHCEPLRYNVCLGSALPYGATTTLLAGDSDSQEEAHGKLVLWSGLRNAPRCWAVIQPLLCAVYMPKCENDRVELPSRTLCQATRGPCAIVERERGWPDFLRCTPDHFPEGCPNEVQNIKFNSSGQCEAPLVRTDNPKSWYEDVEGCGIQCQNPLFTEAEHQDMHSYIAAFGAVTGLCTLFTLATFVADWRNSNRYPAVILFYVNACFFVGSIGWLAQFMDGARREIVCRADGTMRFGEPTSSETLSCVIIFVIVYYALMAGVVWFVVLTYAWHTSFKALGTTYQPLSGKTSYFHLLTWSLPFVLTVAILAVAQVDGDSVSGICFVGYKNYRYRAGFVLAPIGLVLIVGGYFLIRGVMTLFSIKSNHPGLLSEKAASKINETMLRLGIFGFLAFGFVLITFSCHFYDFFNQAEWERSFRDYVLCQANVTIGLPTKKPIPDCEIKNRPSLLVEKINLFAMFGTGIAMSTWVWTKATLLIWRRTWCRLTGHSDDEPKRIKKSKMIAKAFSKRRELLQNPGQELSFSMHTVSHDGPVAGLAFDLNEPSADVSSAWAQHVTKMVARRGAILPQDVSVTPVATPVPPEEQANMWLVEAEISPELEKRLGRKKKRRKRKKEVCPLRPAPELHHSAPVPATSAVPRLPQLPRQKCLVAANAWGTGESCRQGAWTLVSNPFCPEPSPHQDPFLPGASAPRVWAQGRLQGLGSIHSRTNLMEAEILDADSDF
T1 sequence (P56726 33-793): as above

For `COc1cccc(CN(C(=O)CC(C)(C)C)[C@H]2C[C@@H](C(=O)N3CCNCC3)N(Cc3ccc4c(c3)OCO4)C2)c1` [Cur61414], the “selectivity for the Smo1 site compared with the Smo2 site” value in experiment [1] (SAG versus compound 1 stimulation) came to 17 fold. Also, in experiment [2], the “selectivity between Smo1 and Smo2 sites (in words)” value is listed as “much more selective with respect to Smo1 sites than Smo2 sites”. Further, the IC50 in experiment [2] (setting [5]) came to 5.7 ± 1.6 µM; in experiment [2] (setting [6]), 5.7 ± 1.6 µM; in experiment [2] (setting [7]), 7 ± 1 µM. The “Smo2 Inhibition 10 μM” value in experiment [2] (setting [8]) is “weaker inhibition”. Moreover, the “C3H10T1/2 cell differentiation IC50 Smo1/IC50 Smo2” value in experiment [2] is listed as 17.

Turning to `CC1=C2C[C@H]3[C@@H](CC=C4C[C@@H](O)CC[C@@]43C)[C@@H]2CC[C@]12O[C@@H]1C[C@H](C)CN[C@H]1[C@H]2C` [Cyclopamine, cyclopamine], the inhibition (in general, the change of the read-out against control, counted positive when it falls) at 10 µM in experiment [1] (C3H 10T1/2, read-out: Smo1 Inhibition 10 μM) was determined as 98%; in experiment [2] (C3H 10T1/2, read-out: Smo2 Inhibition 10 μM), 48%. Moreover, the “Smo1 Inhibition 10 μM” value in experiment [1] (antagonist at 10 μM, induced by SAG (0.1 μM), C3H10T1/2 cells) is reported as “complete inhibition”. The “Smo2 Inhibition 10 μM” value in experiment [2] (setting [8]) was “weaker inhibition”.

Take `O=C(Nc1cccc2cccnc12)c1ccc(N2C(=O)[C@@H]3[C@H](C2=O)[C@@H]2C=C[C@H]3C2)cc1` [IWR1]: in experiment [3] (IWR1 10 μM, SAG at 0.1 μM), the “effect on the activity of SAG” value is recorded as “does not modify; also recorded: does not affect”. For the same compound, in experiment [3] (IWR1 10 μM, compound 1 at 1 μM), the “effect on the activity of compound 1 (in words)” value was “inhibits the activity of compound 1” and the “reduction of the activity of compound 1” value is given as 60%. Further, the IC50 in experiment [3] (dose-response curve of compound 1 with IWR1, read-out: IC50 with respect to alkaline phosphatase inhibition) is 2500 nM.

As for `COc1cc(C(=O)NC(=O)Nc2cccc(NC(=O)c3ccccc3)c2)cc(OC)c1OC` [MRT-14], the inhibition at 10 µM stood at 100% in experiment [1] (setting [9]) and 95% in experiment [2] (setting [10]). Besides, the IC50 in experiment [1] (C3H10T1/2 cells) turned out to be 130 ± 50 nM; in experiment [2] (response induced by compound 1, read-out: affinity (IC50) for compound 1) it was 0.32 µM; in experiment [2] (response induced by compound 6, read-out: affinity (IC50) for compound 6), 0.4 µM. Besides, in experiment [2], the “selectivity between Smo1 and Smo2 sites (in words)” value was “comparable affinities”. Besides, the “C3H10T1/2 cell differentiation IC50 Smo1/IC50 Smo2” value in experiment [2] turned out to be 2.5.

Take `COc1cc(C(=O)NC(=S)Nc2cccc(NC(=O)c3ccc(-c4ccc(F)cc4)cc3)c2)cc(OC)c1OC` [MRT-79]: in experiment [2], the “selectivity between Smo1 and Smo2 sites (in words)” value is “more selective with respect to Smo2 sites than the Smo1 sites”; the “C3H10T1/2 cell differentiation IC50 Smo1/IC50 Smo2” value is listed as 0.08.

On to `COc1cc(C(=O)NC(=S)Nc2ccc(C)c(NC(=O)c3ccc(-c4ccccc4)cc3)c2)cc(OC)c1OC` [MRT-81], for which the inhibition at 10 µM in experiment [1] (setting [9]) and in experiment [2] (setting [10]) was 100% each time. Moreover, the IC50 was determined as 60 ± 20 nM in experiment [1] (C3H10T1/2 cells), 0.06 µM in experiment [2] (setting [6]) and 0.06 µM in experiment [2] (setting [7]). In addition, in experiment [2] (compound 1 versus SAG stimulation), the “times more selective with respect to Smo2 sites” value is given as 1.3 times. Besides, in experiment [2], the “C3H10T1/2 cell differentiation IC50 Smo1/IC50 Smo2” value turned out to be 0.9.

With `Cc1nn(-c2ccccc2)c(C)c1/C=N/N1CCN(Cc2ccccc2)CC1` [SANT-1], the inhibition at 10 µM in experiment [1] (setting [9]) came out at 100%; in experiment [2] (setting [10]), 71%. The IC50 amounted to 40 ± 10 nM in experiment [1] (C3H10T1/2 cells) and 0.06 ± 0.02 µM in experiment [2] (setting [5]). Further, in experiment [2], the “selectivity between Smo1 and Smo2 sites (in words)” value was “comparable affinities”. Besides, the “C3H10T1/2 cell differentiation IC50 Smo1/IC50 Smo2” value in experiment [2] was determined as 1.5.

In the case of `CCCCCCn1c(=O)c(C(=O)Nc2ccc(C(=O)OCCC)cc2)c(O)c2ccccc21` [compound 1, propyl 4-(1-hexyl-4-hydroxy-2-oxo-1,2-dihydroquinoline-3-carboxamido)benzoate], the “maximum stimulation compared with SAG” value in experiment [4] (dose-response curves produced in parallel) was “greater than that of the Smo agonist SAG”. The stimulation of osteogenesis entry in experiment [4] was “have the capacity to stimulate osteogenesis”.

In the case of `CCCCCCn1c(=O)c(C(=O)Nc2ccc(C(=O)OC(C)(C)C)cc2)c(O)c2ccccc21` [compound 6, tert-butyl 4-(1-hexyl-4-hydroxy-2-oxo-1,2-dihydroquinoline-3-carboxamido)benzoate], the stimulation of osteogenesis result in experiment [4] is listed as “have the capacity to stimulate osteogenesis”.
